Measurements from ChEMBL document CHEMBL3297665, “Case Study of Small Molecules As Antimalarials: 2-Amino-1-phenylethanol (APE) Derivatives” (ACS Med Chem Lett, 2014).
The source made the active and inactive calls. No cut-off for these calls is given here.

Tests used:
Plasmodium falciparum = test: Antiplasmodial activity against ring stage Plasmodium falciparum 3D7A infected in erythrocytes incubated for 24 hrs prior to [3H]hypoxanthine incorporation measured after 24 hrs; format: functional, organism-based
Plasmodium berghei = test: Antiplasmodial activity against Plasmodium berghei infected in po dosed mouse assessed as reduction in parasitemia administered qd for 2 days relative to vehicle-treated control; format: functional
[1] = Inhibition of beta-hematin formation up to 100 uM
[2] = Inhibition of beta-hematin formation

Compound | IC50 (Plasmodium falciparum; Plasmodium falciparum, 3D7A) [nM] | also measured
CC(NC(C)(C)C)C(O)c1ccccc1 (racemic) | > 5000 | –
OC(CNC1CCCCCC1)c1ccc(Cl)c(Cl)c1 (racemic) | 160 | –
CCC(C)(C)N[C@@H](C)[C@@H](O)c1ccc(Cl)c(Cl)c1 (racemic) | – | IC50 (Plasmodium falciparum): 200 nM
CCC(C)(C)N[C@@H](C)[C@@H](O)c1ccc(Cl)c(Cl)c1 | – | IC50 (Plasmodium falciparum): 500 nM
C[C@H](NC1CCCCC1)[C@@H](O)c1ccc(C(F)(F)F)cc1 (relative stereo) | 5000 | –
CCC(C)(C)N[C@@H](C)[C@@H](O)c1ccc(C(F)(F)F)cc1 | – | IC50 (Plasmodium falciparum): 1400 nM
CCC(C)(C)N[C@@H](C)[C@@H](O)c1ccc(C(F)(F)F)cc1 (racemic) [listing 1 of 2 here] | – | inhibition (INH) (Plasmodium berghei): 64%; IC50 (Plasmodium falciparum): 400 nM
C[C@H](NC(C)(C)C)[C@H](O)c1ccc(Cl)c(Cl)c1 (racemic) | > 5000 | –
C[C@H](NC(C)(C)C)[C@@H](O)c1ccc(Cl)c(Cl)c1 (racemic) | 900 | –
C[C@H](NC(C)(C)C)[C@@H](O)c1ccc(Cl)c(C(F)(F)F)c1 (racemic) [listing 1 of 2 here] | 500 | inhibition (INH) (Plasmodium berghei): 76%
C[C@H](N)[C@@H](O)c1ccc(C(F)(F)F)cc1 (relative stereo) | > 5000 | –
C[C@H](NC(C)(C)C)[C@@H](O)c1ccc(Cl)c(C(F)(F)F)c1 | – | IC50 (Plasmodium falciparum): 600 nM
C[C@H](NC(C)(C)C)[C@@H](O)c1ccc(Cl)c(C(F)(F)F)c1 (racemic) [listing 2 of 2 here] | – | inhibition [1]: inactive
CCC(C)(C)N[C@H](C)[C@H](O)c1ccc(Cl)c(Cl)c1 | 400 | –
O[C@@H](c1cc(C(F)(F)F)nc2c(C(F)(F)F)cccc12)[C@H]1CCCCN1 (relative stereo) [(S,R)-MEFLOQUINE] | – | IC50 [2]: 12200 nM
CCC(C)(C)N[C@H](C)[C@H](O)c1ccc(C(F)(F)F)cc1 | 500 | –
OC(CNC1CCCCCCC1)c1ccc(Cl)c(Cl)c1 (racemic) | 70 | –
CC(NC(C)(C)C)C(O)c1ccc(Cl)c(C(F)(F)F)c1 (racemic) | 4300 | –
CCC(C)(C)N[C@@H](C)[C@H](O)c1ccc(Cl)c(Cl)c1 (racemic) | 3900 | –
CCC(C)(C)N(C)[C@@H](C)[C@@H](O)c1ccc(C(F)(F)F)cc1 (relative stereo) | > 5000 | –
CCC(C)(C)N[C@@H](C)[C@H](O)c1ccc(C(F)(F)F)cc1 (racemic) | > 5000 | –
C[C@@H](NC(C)(C)C)[C@H](O)c1ccc(Cl)c(C(F)(F)F)c1 | 300 | –
C[C@H](Nc1ccccc1)[C@@H](O)c1ccc(C(F)(F)F)cc1 (relative stereo) | 5000 | –
OC(CNCc1ccccc1)c1ccc(Cl)c(Cl)c1 (racemic) | 700 | –
CCC(C)(C)N[C@@H](C)[C@@H](O)c1ccc(C(F)(F)F)cc1 (racemic) [listing 2 of 2 here] | – | inhibition [1]: inactive
CC(C)(C)NCC(O)c1ccc(Cl)c(Cl)c1 (racemic) | > 5000 | –
Cc1ccc2ccccc2c1CNCC(O)c1ccc(Cl)c(Cl)c1 (racemic) | > 5000 | –
OC(CNC1CCCCC1)c1ccc(Cl)c(Cl)c1 (racemic) | 720 | –
